We go through 7 compounds from patent US20120095036A1, “NOVEL SUBSTITUTED INDAZOLE AND AZA-INDAZOLE DERIVATIVES AS GAMMA SECRETASE MODULATORS” (priority 2009, published 2012).

Molecules are shown by their SMILES.

The subject of data set [1] is Aβ42. Nature of the data set: Method 1: Aβ42 sandwich ELISA on media of SKNBE2 cells carrying APP 695 wild type (γ-secretase-modulating activity). It counts as cell-based. The following applies: Homo sapiens, SKNBE2 cells APP 695 wild type, 18 hours. Summed up: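 SKNBE2 cells expressing wild-type APP695 exposed to compounds for 18 h in Ultraculture with 1% glutamine. Secreted Aβ42 in media quantified by sandwich ELISA (C-terminal capture, biotinylated 3D6 detection, TMB, 450 nm). IC50 from 4-parameter fit, top/bottom fixed 100/0, Hill slope fixed 1; toxicity checked by WST-1.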

Data set [2] relates to Aβ42. In words: In vivo efficacy: Aβ42 lowering in brain (ELISA). The note with it: brain soluble fraction; typical protocol: single oral dose, overnight fasted animals, after four hours. Set-up: species or system mouse. From the text: (§1) To determine whether acute administration of an Aβ42 lowering agent would reduce Aβ42 levels in vivo, non-transgenic rodents, e.g. mice or rats were used. Alternatively, two to three month old Tg2576 mice expressing APP695 containing the “Swedish” variant can be used or a transgenic mouse model developed by Dr. Fred Van Leuven (K.U.Leuven, Belgium) and co-workers, with neuron-specific expression of a clinical mutant of the human amyloid precursor protein [V717I] (Moechars et al., 1999 J. Biol. Chem. 274, 6483). Young transgenic mice have high levels of Aβ in the brain but no detectable Aβ deposition. At approximately 6-8 months of age, the transgenic mice start to display spontaneous, progressive accumulation of β-amyloid (A13) in the brain, eventually resulting in amyloid plaques within the subiculum, hippocampus and cortex. Animals treated with the Aβ42 lowering agent were examined and compared to those untreated or treated with vehicle and brain levels of soluble Aβ42 and total Aβ would be quantitated by standard techniques, for example, using ELISA. Treatment periods varied from hours to days and were adjusted based on the results of the Aβ42 lowering once a time course of onset of effect could be established.
(§2) A typical protocol for measuring Aβ42 lowering in vivo is shown but it is only one of many variations that could be used to optimize the levels of detectable Aβ. For example, Aβ42 lowering compounds were formulated in 20% of Captisol® (a sulfobutyl ether of β-cyclodextrin) in water or 20% hydroxypropyl β cyclodextrin. The Aβ42 lowering agents were administered as a single oral dose or by any acceptable route of administration to overnight fasted animals. After four hours, the animals were sacrificed and Aβ42 levels were analysed.
(§3) Blood was collected by decapitation and exsanguinations in EDTA-treated collection tubes. Blood was centrifuged at 1900 g for 10 minutes (min) at 4° C. and the plasma recovered and flash frozen for later analysis. The brain was removed from the cranium and hindbrain. The cerebellum was removed and the left and right hemisphere were separated. The left hemisphere was stored at −18° C. for quantitative analysis of test compound levels. The right hemisphere was rinsed with phosphate-buffered saline (PBS) buffer and immediately frozen on dry ice and stored at −80° C. until homogenization for biochemical assays.
(§4) Mouse brains were resuspended in 10 volumes of 0.4% DEA (diethylamine)/50 mM NaCl pH 10 (for non-transgenic animals) or 0.1% 3-[(3-cholamidopropyl)-dimethyl-ammonio]-1-propanesulfonate (CHAPS) in tris buffered saline (TBS) (for transgenic animals) containing protease inhibitors (Roche-11873580001 or 04693159001) per gram of tissue, e.g. for 0.158 g brain, add 1.58 ml of 0.4% DEA. All samples were sonicated for 30 sec on ice at 20% power output (pulse mode). Homogenates were centrifuged at 221.300×g for 50 min. The resulting high speed supernatants were then transferred to fresh tubes and were optionally further purified before the next step. A portion of the supernatant was neutralized with 10% 0.5 M Tris-HCl and this was used to quantify Aβtotal.
(§5) The obtained supernatants were purified with Water Oasis HLB reverse phase columns (Waters Corp., Milford, Mass.) to remove non-specific immunoreactive material from the brain lysates prior subsequent Aβ detection. Using a vacuum manifold, all solutions were passed through the columns at a rate of approximately 1 ml/min, so the vacuum pressure was adjusted accordingly throughout the procedure. Columns were preconditioned with 1 ml of 100% MeOH, before equilibration with 1 ml of H2O, Non-neutralized brain lysates were loaded onto the columns. The loaded samples were then washed twice with the first wash performed with 1 ml of 5% MeOH, and the second wash with 1 ml of 30% MeOH. Finally, the Aβ was eluted from the columns and into 100×30 mm glass tubes, with a solution of 90% MeOH with 2% NH4OH. […]
(In general: ELISA stands for enzyme-linked immunosorbent assay.)

The subject of a further data set is Aβtotal. In words: In vivo efficacy: Aβtotal in brain (ELISA). Set-up: species or system mouse. The note with it: brain soluble fraction; typical protocol: single oral dose, overnight fasted animals, after four hours.
From the text: as §1, §2, §3, §4, §5

The IC50 is the concentration that inhibits the measured activity by half. In turn, `COc1cccc(-n2cc3cccc(Nc4ccc(-n5cnc(C)c5)c(OC)c4)c3n2)c1` [Compound 1, N-[3-methoxy-4-(4-methyl-1H-imidazol-1-yl)phenyl]-2-(3-methoxyphenyl)-2H-indazol-7-amine] displayed a concentration for half-maximal inhibition (IC50) in the data set with Aβ42 [1] of 46 nM. The “Aβ42 (% Ctrl) _Mean” value in the data set on Aβ42 [2] was found to be 94 % Ctrl. The “Aβtotal (% Ctrl) _Mean” value with Aβtotal is given as 108 % Ctrl.
As a reminder, the melting point is the temperature, or range, at which the solid turns liquid. As to `COc1cccc(-n2nc3c(Nc4ccc(-n5cnc(C)c5)c(OC)c4)cccc3c2C)c1` [Compound 2, N-[3-methoxy-4-(4-methyl-1H-imidazol-1-yl)phenyl]-2-(3-methoxyphenyl)-3-methyl-2H-indazol-7-amine], the melting point worked out at 184.4 °C. The IC50 in the data set with Aβ42 [1] turned out to be 7 nM. Moreover, in the data set with Aβ42 [2], the “Aβ42 (% Ctrl) _Mean” value came to 59 % Ctrl. In the data set with Aβtotal, the “Aβtotal (% Ctrl) _Mean” value amounted to 90 % Ctrl.
Turning to `COc1cc(Nc2cccc3cn(CC(F)(F)F)nc23)ccc1-c1cnc(C)o1` [Compound 6, N-[3-methoxy-4-(2-methyl-5-oxazolyl)phenyl]-2-(2,2,2-trifluoroethyl)-2H-indazol-7-amine], the IC50 in the data set with Aβ42 [1] stood at 152 nM. In the data set with Aβ42 [2], the “Aβ42 (% Ctrl) _Mean” value was 79 % Ctrl. Besides, the “Aβtotal (% Ctrl) _Mean” value in the data set with Aβtotal came to 95 % Ctrl.
Taken in the same sequence, the figures for `COc1cc(Nc2cccc3cn(Cc4ccc(F)cc4)nc23)ccc1-n1cnc(C)c1` [Compound 15, 2-[(4-fluorophenyl)methyl]-N-[3-methoxy-4-(4-methyl-1H-imidazol-1-yl)phenyl]-2H-indazol-7-amine] were 75 nM, 69 % Ctrl and 94 % Ctrl.
With `COc1cccc(-n2nc3c(Nc4ccc(-c5cnc(C)o5)cc4)cccc3c2C)c1` [Compound 29, 2-(3-methoxyphenyl)-3-methyl-N-[4-(2-methyl-5-oxazolyl)phenyl]-2H-indazol-7-amine], the melting point is 152.2 °C. In the data set with Aβ42 [1], this compound yielded an IC50 of 28 nM. Moreover, the “Aβ42 (% Ctrl) _Mean” value in the data set on Aβ42 [2] stood at 96 % Ctrl. In addition, in the data set with Aβtotal, the “Aβtotal (% Ctrl) _Mean” value is recorded as 98 % Ctrl.
`COc1cc(Nc2cccc3cn(CC4CC4)nc23)ccc1-c1cnc(C)o1.Cl` [Compound 38, 2-(cyclopropylmethyl)-N-[3-methoxy-4-(2-methyl-5-oxazolyl)phenyl]-2H-indazol-7-amine HCl]: in the data set on Aβ42 [1], the midpoint of inhibition, the IC50, lay at 518 nM. The “Aβ42 (% Ctrl) _Mean” value in the data set on Aβ42 [2] is 123 % Ctrl. Further, the “Aβtotal (% Ctrl) _Mean” value with Aβtotal worked out at 106 % Ctrl.
In turn, `COc1cccc(-n2nc3c(Nc4ccc(-c5cnc(C)o5)c(OC)c4)nccc3c2C)c1` [Compound 42, N-[3-methoxy-4-(2-methyl-5-oxazolyl)phenyl]-2-(3-methoxyphenyl)-3-methyl-2H-pyrazolo[3,4-c]pyridin-7-amine] registered a melting point of 194.4 °C. In the data set with Aβ42 [1], this compound displayed an IC50 of 91 nM. In addition, in the data set with Aβ42 [2], the “Aβ42 (% Ctrl) _Mean” value worked out at 104 % Ctrl. Moreover, the “Aβtotal (% Ctrl) _Mean” value in the data set on Aβtotal was 100 % Ctrl.
